Measurements taken from patent US20140011755A1, “Cardiac Glycosides for Treating Autoimmune Disease” (Department of Veterans Affairs, priority 2010, published 2014).

Experiments:
TNFR = type: cell-based, mice; conditions: pre-treatment with 3.3 or 33 nM
Description: (§1) Activity was monitored by ^3H-thymidine incorporation as a read-out for proliferation. […] Cell type(s) in the splenocyte population responsive to therapeutic concentrations of cardiac glycoside were determined by identifying the population of cells that responded to a dose-dependent decrease in activity in the presence of stimulant, defined as ligand(s) binding to cognate receptor(s). Activity was analyzed by: ^3H-thymidine or BrdU incorporation to monitor proliferation or by ELISA to monitor cytokine production. Splenic T lymphocytes were isolated by negative selection (MACS, Miltinyi Biotec) and are stimulated with PMA, ConA or through the TCR with anti-CD3/anti-CD28 Dynabeads (Invitrogen) and collagen II (all non-TNFR receptors/pathways). […] Peritoneal and bone marrow-derived macrophages were isolated from CIA mice in the presence of M-CSF growth factor and were stimulated with TNF and CD40 ligand (CD40L). […] Splenic B lymphocytes were isolated by negative selection (MACS, Miltinyi Biotec) and were stimulated with BAFF (BLyS), CD40L or through the BCR with anti-IgM u-chain specific antibodies.

CD40 = biological target: T1, CD40 (Mus musculus, UniProt P27512); type: cell-based, mice; conditions: pre-treatment with 3.3 or 33 nM
T1 construct: Peritoneal and bone marrow-derived macrophages were isolated from CIA mice; endogenous in cells; host or cells: peritoneal and bone marrow-derived macrophages from CIA mice
T1 sequence (P27512 20-289): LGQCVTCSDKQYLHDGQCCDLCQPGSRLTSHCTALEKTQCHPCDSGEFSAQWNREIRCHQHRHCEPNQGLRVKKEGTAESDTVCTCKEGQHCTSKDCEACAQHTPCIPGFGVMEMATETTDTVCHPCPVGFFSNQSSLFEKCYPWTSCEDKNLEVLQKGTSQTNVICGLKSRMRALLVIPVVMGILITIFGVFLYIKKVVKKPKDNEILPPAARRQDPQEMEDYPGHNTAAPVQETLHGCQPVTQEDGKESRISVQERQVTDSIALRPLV
Description: as §1

T cell receptor = type: cell-based, mice; conditions: non-TNFR family member; therapeutic concentrations
Description: as §1

TNF, IL-6 and IL-1beta = experiment: Serum cytokine ELISA in CIA treatment groups; type: in vivo; conditions: serum from 3 mice per treatment group, ELISA in triplicate
Description: FIG. 9. Serum cytokine levels are similar between vehicle and cardiac glycoside treatment groups. […] The unpaired student t-test was used to assess significance.

C[C@H]1O[C@@H](O[C@H]2[C@@H](O)C[C@H](O[C@H]3[C@@H](O)C[C@H](O[C@H]4CC[C@@]5(C)[C@H](CC[C@@H]6[C@@H]5CC[C@]5(C)[C@@H](C7=CC(=O)OC7)CC[C@]65O)C4)O[C@@H]3C)O[C@@H]2C)C[C@H](O)[C@@H]1O [Digitoxin, digitoxin]
TNF-mediated activation of macrophage through TNFR (TNFR): inhibits
CD40L-mediated activation of macrophage through CD40 (CD40): inhibits
proliferation of T cells in response to stimulation through the T cell receptor (T cell receptor): did not alter proliferation
Serum cytokine levels (TNF, IL-6 and IL-1beta) versus vehicle (TNF, IL-6 and IL-1beta): similar
